Holding throughout (assay): growth of human tumour cells (NCI), 48 h
For experiment [1], the system named is HCC-2998 colon.
The subject of experiment [2] is SNB-75 CNS.
The test system of experiment [3] is CCRF-CEM leukemia.
Experiment [4] deals with OVCAR-4 ovarian.
In experiment [5] the test system is U251 CNS.
Experiment [6] has as its system 786-0 renal.
The subject of experiment [7] is IGROV1 ovarian.
In experiment [8] the test system is HS 578T breast.
Experiment [9] concerns MDA-MB-435.
The subject of experiment [10] is T-47D breast.

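A five-concentration, 48-hour dose response in 96-well plates underlies each endpoint, interpolated linearly between surrounding concentrations. At the GI50, growth is halved. TGI is the concentration that stops growth completely.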

With `COc1cc2c(oc(=O)c3c4oc([Si](C)(C)C)cc4cc(OC)c23)c2cccc(O)c12`, the TGI in experiment [1], in [2], in [3], in experiment [4], in [5] and in experiment [6] was more than 100 µM in each case. The same molecule returned a TGI in [7] of more than 100 µM.
`O=C(CCc1nnc2s/c(=C\c3ccc(Cl)cc3Cl)c(=O)n12)Nc1cc(Cl)c(Cl)cc1Cl`: the TGI in [1], in experiment [2], in experiment [3], in [4], in [5] and in [7] was more than 100 µM throughout. Further, the GI50 in experiment [3], in experiment [4] and in experiment [7] was more than 100 µM throughout.
Regarding `CC(C)Oc1c(O)c2c3c(oc(=O)n3C=CC2c2ccccc2F)c1OC(C)C` (stereo unspecified), the TGI was more than 100 µM in [2]; 97.6 µM in [3]; more than 100 µM in experiment [4]; more than 100 µM in experiment [5]; more than 100 µM in [6]; more than 100 µM in [7]. In addition, the TGI in [8] was more than 100 µM; in [9], 70 µM.
As for `CC(C)(C)C(=O)Cc1cc2c(cc1C(=O)O)S(=O)(=O)NC(C(C)(C)C)=C2`, the TGI in [2], in experiment [3], in experiment [4], in experiment [5] and in experiment [6] was more than 100 µM throughout.
Consider `COc1cc(NS(C)(=O)=O)ccc1N1Cc2cnc3ccc4[nH]ccc1c4c23`, for which the TGI in [3] was more than 100 µM; in experiment [4] it was more than 100 µM; in experiment [5] it was more than 100 µM; in experiment [6], more than 100 µM; in experiment [7], more than 100 µM; in experiment [10], 83.6 µM. Besides, the TGI in experiment [8] and in experiment [9] was more than 100 µM in each case.
Turning to `C[Si](C)(C)C1=C2C(=O)c3ccccc3C(=O)C2=C([Si](C)(C)C)[C@@H]2CCCC[C@H]12`, the TGI in [1], in experiment [3], in experiment [4], in [5], in experiment [7] and in experiment [10] was more than 100 µM in each case. In addition, the TGI in [9] was more than 100 µM.
On to `Cc1cc(C)n(CN(Cn2nc(C)cc2C)c2ccc(N(Cn3nc(C)cc3C)Cn3nc(C)cc3C)cc2)n1`, for which the TGI in experiment [3] worked out at 63.9 µM; in experiment [4], 43 µM; in [5], 91.1 µM; in [6], 43.4 µM; in experiment [7], 50.7 µM; in [10], 51.8 µM. The results for the TGI in experiment [8] and in experiment [9] were 57 µM and 35.9 µM, respectively.
As to `Cc1[nH]c(=O)nc2c1C(=O)N(C(C)C)C(NC(C)C)S2` (stereo unspecified), the TGI in experiment [1], in experiment [2], in experiment [3], in experiment [4], in experiment [5] and in [6] was more than 100 µM throughout. For the same molecule, the TGI in experiment [7], in experiment [10] and in [9] was more than 100 µM each time.
Consider `N#C/C(=C/NC(=S)Nc1ccc(S(N)(=O)=O)cc1)C(N)=O`, for which the TGI in experiment [1], in experiment [2], in experiment [4], in experiment [5], in [6] and in experiment [7] was more than 100 µM throughout. For the same molecule, the TGI in [8] and in experiment [9] was more than 100 µM each time.
On to `C[N+](C)([O-])Cc1cccc(NC(=O)c2ccc(C(=O)Nc3cccc(C[N+](C)(C)[O-])c3)cc2)c1`, for which the TGI in experiment [1], in [3], in [4], in experiment [5], in experiment [6] and in [7] was more than 100 µM in each case. The molecule also displayed a TGI in experiment [10] of more than 100 µM.
With `CC(C)OP(=O)(OC(C)C)c1ncn(-c2ccc([N+](=O)[O-])cc2)n1`, the TGI in [1], in experiment [2], in experiment [3], in experiment [4], in [5] and in [7] was more than 100 µM throughout.
Consider `CC(C)(Oc1ccc(C2C[C@H]2Cl)cc1)C(=O)O` (stereo partly specified), for which the TGI in experiment [2], in [4], in experiment [5], in experiment [6], in experiment [7] and in experiment [10] was more than 100 µM throughout. Further, the TGI in experiment [8] and in experiment [9] was more than 100 µM in each case.
For the molecule `CC1=C2CC3=C(C)C(=O)O[C@H]3C[C@@H](C)[C@@H]2CC1`, the TGI in experiment [1], in [2], in [3], in experiment [4], in experiment [5] and in experiment [6] was more than 100 µM throughout. Besides, the TGI in experiment [7], in experiment [8] and in experiment [9] was more than 100 µM each time.
As to `c1ccc(C2(c3cc4ccccc4[nH]3)OCCO2)cc1`, the TGI was more than 100 µM in experiment [2]; 74 µM in experiment [3]; more than 100 µM in experiment [4]; more than 100 µM in experiment [5]; more than 100 µM in experiment [6]; more than 100 µM in experiment [7]. In addition, the TGI in [10] and in experiment [9] was more than 100 µM each time.
For the molecule `O=C(c1ccccc1)c1cc(-c2ccccc2)c(-c2ccccc2)[nH]c(=O)c1=O`, the TGI in experiment [1] was 60.6 µM; in experiment [3], more than 100 µM; in [4], more than 100 µM; in [5], more than 100 µM; in [6], more than 100 µM; in experiment [7], more than 100 µM. Further, the TGI in experiment [8] and in [9] was more than 100 µM throughout.
Turning to `CCCCCCCCCCCCCCCCCc1nc(C#N)c(N)o1`, the TGI is 70.2 µM in [2]; more than 100 µM in experiment [3]; more than 100 µM in experiment [5]; more than 100 µM in [6]; 36.4 µM in [7]; 85.4 µM in experiment [8]. This molecule also registered a TGI in experiment [9] of more than 100 µM.
In the case of `C=CCn1c(=O)c(-c2ccccc2)c(O)c2ccccc21`, the TGI in experiment [1], in [2], in [3], in [4], in experiment [5] and in experiment [6] was more than 100 µM each time. Also, the TGI in [7], in [8] and in [9] was more than 100 µM in each case.

These data come from PubChem BioAssay (NCI).
